Measurements taken from ChEMBL document CHEMBL2311470, “Heterobivalent dual-target probe for targeting GRP and Y1 receptors on tumor cells” (Bioorg Med Chem Lett, 2013).

Tests used:
Assay type in all cases: cell-based
[1] = target: T1, Neuropeptide Y receptor type 1 (Homo sapiens, UniProt P25929); assay: Binding affinity to Y1 receptor in human SK-N-MC cells
T1 sequence (P25929 whole entry): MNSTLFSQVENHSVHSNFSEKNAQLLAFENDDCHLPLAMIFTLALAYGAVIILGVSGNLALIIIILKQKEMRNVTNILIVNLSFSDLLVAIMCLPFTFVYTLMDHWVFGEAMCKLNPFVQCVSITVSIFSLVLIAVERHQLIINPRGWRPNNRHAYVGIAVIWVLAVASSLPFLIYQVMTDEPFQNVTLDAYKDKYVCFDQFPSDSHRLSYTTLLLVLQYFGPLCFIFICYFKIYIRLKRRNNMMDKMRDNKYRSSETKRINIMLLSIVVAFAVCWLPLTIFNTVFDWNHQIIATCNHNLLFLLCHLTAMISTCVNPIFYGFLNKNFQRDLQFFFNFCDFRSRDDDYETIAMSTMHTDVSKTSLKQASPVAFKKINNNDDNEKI

[2] = target: T1, Neuropeptide Y receptor type 1; assay: Displacement of [125I]-NPY from Y1 receptor in human MCF7 cells in presence of 1 uM BBN
[3] = target: Gastrin-releasing peptide receptor (Homo sapiens, UniProt P30550); assay: Displacement of [125I]-Tyr4-BBN from human GRPR overexpressed in human T47D cells
Gastrin-releasing peptide receptor, sequence (P30550 whole entry): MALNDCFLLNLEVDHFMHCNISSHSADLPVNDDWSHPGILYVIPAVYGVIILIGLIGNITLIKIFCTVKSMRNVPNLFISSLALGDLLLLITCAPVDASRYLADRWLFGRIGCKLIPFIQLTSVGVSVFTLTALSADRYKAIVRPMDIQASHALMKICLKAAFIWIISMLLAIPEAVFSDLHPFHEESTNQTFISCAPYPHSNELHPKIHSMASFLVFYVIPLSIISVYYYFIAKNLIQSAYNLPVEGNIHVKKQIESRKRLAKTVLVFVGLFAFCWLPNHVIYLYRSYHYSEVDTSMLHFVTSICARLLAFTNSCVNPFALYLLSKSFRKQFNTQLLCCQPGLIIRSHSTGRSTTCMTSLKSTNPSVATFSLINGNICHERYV

In the case of `CC[C@H](C)[C@H](N)C(=O)N[C@@H](CC(N)=O)C(=O)N1CCC[C@H]1C(=O)N[C@@H](CCCCNC(=O)COCCOCCNC(=O)[C@H](CCCCNC(=O)COCC(=O)NCCOCCOCC(=O)NCC(=O)Nc1ccc(C(=O)N[C@@H](CCC(N)=O)C(=O)N[C@@H](Cc2c[nH]c3ccccc23)C(=O)N[C@@H](C)C(=O)N[C@H](C(=O)NCC(=O)N[C@@H](Cc2cnc[nH]2)C(=O)N[C@@H](CC(C)C)C(=O)N[C@@H](CCSC)C(N)=O)C(C)C)cc1)NC(=O)CN1CCN(CC(=O)O)CCN(CC(=O)O)CCN(CC(=O)O)CC1)C(=O)N[C@@H](Cc1ccc(O)cc1)C(=O)N[C@@H](CCCN=C(N)N)C(=O)N[C@@H](CC(C)C)C(=O)N[C@@H](CCCN=C(N)N)C(=O)N[C@@H](Cc1ccc(O)cc1)C(N)=O`, the IC50 [1] is reported as 74 nM, the IC50 [2] is reported as 80 nM and the IC50 [3] is reported as 18 nM.
